Measurements: patent publication US10272090B1, “Liquid pharmaceutical composition comprising pemetrexed” (SYNTHON B.V., priority 2014, dated 2019)

Assay: Solubility / precipitation of pemetrexed diacid in aqueous solution depending on pH
Format: physicochemical
Conditions: aqueous solutions with neutral or acidic pH

Q: With Nc1nc2[nH]cc(CCc3ccc(C(=O)N[C@@H](CCC(=O)O)C(=O)O)cc3)c2c(=O)[nH]1 [pemetrexed diacid, N-[4-[2-(2-amino-4,7-dihydro-4-oxo-1H-pyrrolo[2,3-d]pyrimidin-5-yl)ethyl]benzoyl]-L-glutamic acid] as the compound, how does the solubility read?
A: very low
